For 59 compounds, EC50 results are on record in patent US7985755B2, “2,4-diaminoquinazolines for spinal muscular atrophy” (Families of Spinal Muscular Atrophy, priority 2006, dated 2011).

Counter-ions that a name gives are not always drawn.

One experiment has as its system SMN2 promoter. The experiment can be described thus: SMN2 promoter assay in NSC-34 cells (β-lactamase reporter). It is filed as cell-based, mouse. To be noted: Mus musculus, Table 1, SMN2 promoter driving β-lactamase, 12 point dose curve, read-out: Promoter Assay EC50. From the text:
All compounds were screened using an in vitro based SMN2 promoter assay. We used NSC-34 cells, a hybrid cell line between mouse spinal cord cells and mouse neuroblastoma cells. NSC-34 cells harbor an expression plasmid containing a 3.4 kb promoter fragment of the SMN2 gene driving β-lactamase expression.
[…] […] CCF2-AM diffuses across the plasma membrane and is converted into an active β-lactamase substrate by cytoplasmic esterase. […] The fold induction is proportional to the extent of β-lactamase produced and in turn proportional to SMN2 promoter activation for a given compound relative to vehicle (DMSO) control. […] These values are used to rank activities of the compounds and derive structure activity relationship.
For the compound `Nc1nc(N)c2c(OCC3CCN(Cc4ccc(Cl)cc4)CC3)cccc2n1` [Example-004, 5-[1-(4-Chlorobenzyl)piperidin-4-ylmethoxy]quinazoline-2,4-diamine hydrochloride], the concentration giving a half-maximal response (EC50) was below 1000 nM. The same measure, in the same setting: the result for `Nc1nc(N)c2c(OCC3CCN(Cc4ccc(F)c(F)c4)CC3)cccc2n1` [Example-011, 5-[1-(3,4-Difluorobenzyl)piperidin-4-ylmethoxy]quinazoline-2,4-diamine] reads below 1000 nM. The same measure, in the same setting: the result for `Nc1nc(N)c2c(OCC3CCN(C(=O)c4ccccc4F)CC3)cccc2n1` [Example-013, [4-(2,4-Diaminoquinazolin-5-yloxymethyl)piperidin-1-yl](2-fluorophenyl)methanone] reads below 1000 nM; that for `Nc1nc(N)c2c(OCC3CCN(C(=O)c4ccc5ccccc5c4)CC3)cccc2n1` [Example-018, [4-(2,4-Diaminoquinazolin-5-yloxymethyl)piperidin-1-yl]naphthalen-2-yl-methanone], below 1000 nM.

For `Cc1ccccc1C(=O)N1CCC(COc2cccc3nc(N)nc(N)c23)CC1` [Example-019, [4-(2,4-Diaminoquinazolin-5-yloxymethyl)piperidin-1-yl]-o-tolylmethanone], the EC50 is below 1000 nM. Still for that read-out and setting: the result for `Cc1cccc(C(=O)N2CCC(COc3cccc4nc(N)nc(N)c34)CC2)c1` [Example-020, [4-(2,4-Diaminoquinazolin-5-yloxymethyl)piperidin-1-yl]-m-tolylmethanone] reads below 1000 nM; that for `Cc1ccc(C(=O)N2CCC(COc3cccc4nc(N)nc(N)c34)CC2)cc1` [Example-021, [4-(2,4-Diaminoquinazolin-5-yloxymethyl)piperidin-1-yl]-p-tolylmethanone], below 1000 nM; that for `Nc1nc(N)c2c(OCC3CCN(C(=O)c4ccc(F)cc4F)CC3)cccc2n1` [Example-022, [4-(2,4-Diaminoquinazolin-5-yloxymethyl)piperidin-1-yl]-(2,4-difluorophenyl)methanone], below 1000 nM. `Nc1nc(N)c2c(OCC3CCN(C(=O)c4ccc(F)c(F)c4)CC3)cccc2n1` [Example-023, [4-(2,4-Diaminoquinazolin-5-yloxymethyl)piperidin-1-yl]-(3,4-difluorophenyl)methanone]: the EC50 was below 1000 nM. Regarding `Nc1nc(N)c2c(OCC3(S(=O)(=O)c4cccc(Cl)c4)CCNCC3)cccc2n1` [Example-026, 5-[4-(3-Chlorobenzenesulfonyl)piperidin-4-ylmethoxy]quinazoline-2,4-diamine], the EC50 was below 1000 nM. With `Nc1nc(N)c2c(OCC3(S(=O)(=O)c4ccccc4Cl)CCNCC3)cccc2n1` [Example-027, 5-[4-(2-Chlorobenzenesulfonyl)piperidin-4-ylmethoxy]quinazoline-2,4-diamine], the EC50 was below 1000 nM. For `Cc1cccc(S(=O)(=O)N2CCC(COc3cccc4nc(N)nc(N)c34)CC2)c1` [Example-032, 5-[1-(Toluene-3-sulfonyl)piperidin-4-ylmethoxy]quinazoline-2,4-diamine], the EC50 was below 1000 nM.

For `Nc1nc(N)c2c(OCC3(S(=O)(=O)c4ccc(F)c(F)c4)CCNCC3)cccc2n1` [Example-035, 5-[4-(3,4-Difluorobenzenesulfonyl)-piperidin-4-ylmethoxy]quinazoline-2,4-diamine], the EC50 was below 1000 nM.

The experiment is the same for the next values; noted with them: Mus musculus, Table 4, SMN2 promoter driving β-lactamase, read-out: Promoter Assay EC50 for 2391.003C(P).
For `CC(C)(C)OC(=O)N1CCN(c2cccc3nc(N)nc(N)c23)CC1` [Examplc-219, 4-(2,4-Diaminoquinazolin-5-yl)piperazine-1-carboxylic acid tert-butyl ester], the EC50 fell in the range of 1000 to 5000 nM.

The experiment is the same for the next values; noted with them: Mus musculus, Table 6, SMN2 promoter driving β-lactamase, read-out: Promoter Assay EC50.
In the case of `Nc1nc(N)c2c(OCC3CC[N+]([O-])(Cc4ccccc4F)CC3)cccc2n1` (centres unmarked) [Examplc-221], the EC50 lay within 1000 to 5000 nM.

Staying with this experiment, now noted: Table 1, SMN2 promoter driving β-lactamase, 12 point dose curve, read-out: Promoter Assay EC50.
For `Nc1nc(N)c2c(OCC3CCN(Cc4cccc5ccccc45)CC3)cccc2n1` [Example-005], the 50% effective concentration (EC50) is below 1000 nM. For the compound `Nc1nc(N)c2c(OCC3CCN(S(=O)(=O)c4ccc(Cl)cc4)CC3)cccc2n1` [Example-028], the EC50 is below 1000 nM. For `Nc1nc(N)c2c(OCC3CCN(S(=O)(=O)c4cccc5ccccc45)CC3)cccc2n1` [Example-029], the EC50 was below 1000 nM.

Take `Nc1nc(N)c2c(OCC3CCN(S(=O)(=O)c4ccc5ccccc5c4)CC3)cccc2n1` [Example-030]: the EC50 was below 1000 nM. The same measure, in the same setting: the result for `Cc1ccccc1S(=O)(=O)N1CCC(COc2cccc3nc(N)nc(N)c23)CC1` [Example-031] reads below 1000 nM.

On to `Cc1ccc(S(=O)(=O)N2CCC(COc3cccc4nc(N)nc(N)c34)CC2)cc1` [Example-033], for which the EC50 is below 1000 nM. Still for that read-out and setting: with `CC(C)(C)OC(=O)N1CCC(COc2cccc3nc(N)nc(N)c23)CC1` [Example-037] the figure was below 1000 nM; with `Nc1nc(N)c2c(OCC3CCN(C(=O)c4ccc(I)cc4)CC3)cccc2n1` [Example-040], below 1000 nM; with `Nc1nc(N)c2c(OCC3CCN(C(=O)c4ccccc4I)CC3)cccc2n1` [Example-041], below 1000 nM.

As for `Nc1nc(N)c2c(OCC3CCN(Cc4ccc(I)cc4)CC3)cccc2n1` [Example-044], the EC50 was below 1000 nM. For the compound `COc1ccc(CC(=O)N2CCC(COc3cccc4nc(N)nc(N)c34)CC2)cc1` [Example-045], the concentration giving a half-maximal response (EC50) was in the range of 1000 to 5000 nM.

Turning to `Nc1nc(N)c2c(OCC3CCN(C(=O)c4cccc(F)c4)CC3)cccc2n1` [Example-046], the half-maximal effective concentration (EC50) is below 1000 nM.

As to `CS(=O)(=O)c1ccc(CN2CCC(COc3cccc4nc(N)nc(N)c34)CC2)cc1` [Example-047], the EC50 is below 1000 nM. Turning to `CC(C)(C)C(=O)N1CCC(COc2cccc3nc(N)nc(N)c23)CC1` [Example-048], the EC50 was below 1000 nM. The same measure, in the same setting: with `CC1CCC(C(=O)N2CCC(COc3cccc4nc(N)nc(N)c34)CC2)CC1` (centres unmarked) [Example-049] the figure was below 1000 nM.

For the compound `Nc1nc(N)c2c(OCC3CCN(C(=O)c4ccc(Cl)nc4)CC3)cccc2n1` [Example-051], the EC50 was below 1000 nM. For the compound `Nc1nc(N)c2c(OCC3CCN(C(=O)c4cc(F)ccc4F)CC3)cccc2n1` [Example-052], the EC50 is below 1000 nM. Turning to `Nc1nc(N)c2c(OCC3CCN(C(=O)c4cc(Cl)cc(Cl)c4)CC3)cccc2n1` [Example-054], the 50% effective concentration (EC50) was below 1000 nM. Still for that read-out and setting: the result for `Nc1nc(N)c2c(OCC3CCN(C(=O)c4cccs4)CC3)cccc2n1` [Example-055] reads below 1000 nM; that for `COc1ccc(C(=O)N2CCC(COc3cccc4nc(N)nc(N)c34)CC2)cc1` [Example-056], below 1000 nM. On the same count and under the same terms, with `Nc1nc(N)c2c(OCC3CCN(C(=O)c4ccco4)CC3)cccc2n1` [Example-057] the figure was below 1000 nM; with `Cc1cc(C(=O)N2CCC(COc3cccc4nc(N)nc(N)c34)CC2)no1` [Example-059], below 1000 nM; with `Nc1nc(N)c2c(OCC3CCN(C(=O)c4ccc(Cl)cc4Cl)CC3)cccc2n1` [Example-060], below 1000 nM. Same read-out and setting: the result for `Nc1nc(N)c2c(OCC3CCN(C(=O)c4ccccc4OC(F)(F)F)CC3)cccc2n1` [Example-061] reads below 1000 nM. For `Nc1nc(N)c2c(OCC3CCN(C(=O)c4ccc(F)cc4)CC3)cccc2n1` [Example-062], the EC50 is below 1000 nM.

On to `Nc1nc(N)c2c(OCC3CCN(C(=O)c4ccc(OC(F)(F)F)cc4)CC3)cccc2n1` [Example-063], for which the EC50 was below 1000 nM. On to `CCc1ccc(C(=O)N2CCC(COc3cccc4nc(N)nc(N)c34)CC2)cc1` [Example-064], for which the EC50 is below 1000 nM.

For `Nc1nc(N)c2c(OCC3CCN(C(=O)CSc4ccccc4)CC3)cccc2n1` [Example-070], the EC50 is below 1000 nM. In the case of `Nc1nc(N)c2c(OCC3CCN(C(=O)c4ccc(C(F)(F)F)nc4)CC3)cccc2n1` [Example-071], the EC50 is below 1000 nM.

As to `CS(=O)(=O)N1CCC(COc2cccc3nc(N)nc(N)c23)CC1` [Example-072], the EC50 was below 1000 nM.

Turning to `CC(C)(C)c1ccc(S(=O)(=O)N2CCC(COc3cccc4nc(N)nc(N)c34)CC2)cc1` [Example-073], the EC50 was below 1000 nM. In the case of `Nc1nc(N)c2c(OCC3CCN(S(=O)(=O)c4ccc(Cl)s4)CC3)cccc2n1` [Example-074], the EC50 was below 1000 nM.

With `Nc1nc(N)c2c(OCC3CCN(S(=O)(=O)c4cccs4)CC3)cccc2n1` [Example-075], the EC50 is below 1000 nM. For `Cc1noc(C)c1S(=O)(=O)N1CCC(COc2cccc3nc(N)nc(N)c23)CC1` [Example-076], the EC50 is below 1000 nM. For `Nc1nc(N)c2c(OCC3CCN(S(=O)(=O)c4cccc(F)c4)CC3)cccc2n1` [Example-077], the EC50 is below 1000 nM. Same read-out and setting: the result for `Nc1nc(N)c2c(OCC3CCN(S(=O)(=O)c4cccc(Cl)c4Cl)CC3)cccc2n1` [Example-078] reads below 1000 nM; that for `Cc1ccc(F)cc1S(=O)(=O)N1CCC(COc2cccc3nc(N)nc(N)c23)CC1` [Example-079], below 1000 nM; that for `COc1ccc(Cl)cc1S(=O)(=O)N1CCC(COc2cccc3nc(N)nc(N)c23)CC1` [Example-080], below 1000 nM. Consider `Cc1c(Cl)cccc1S(=O)(=O)N1CCC(COc2cccc3nc(N)nc(N)c23)CC1` [Example-081], for which the EC50 is below 1000 nM. As for `Nc1nc(N)c2c(OCC3CCN(S(=O)(=O)c4ccc(C(F)(F)F)cc4)CC3)cccc2n1` [Example-082], the 50% effective concentration (EC50) was below 1000 nM. On the same count and under the same terms, the result for `COc1ccc(Br)cc1S(=O)(=O)N1CCC(COc2cccc3nc(N)nc(N)c23)CC1` [Example-083] reads below 1000 nM; that for `Nc1nc(N)c2c(OCC3CCN(S(=O)(=O)c4ccc(Cl)cc4Cl)CC3)cccc2n1` [Example-084], below 1000 nM. Take `Nc1nc(N)c2c(OCC3CCN(S(=O)(=O)c4c(Cl)cccc4Cl)CC3)cccc2n1` [Example-085]: the EC50 is below 1000 nM. Regarding `CS(=O)(=O)c1ccc(S(=O)(=O)N2CCC(COc3cccc4nc(N)nc(N)c34)CC2)cc1` [Example-086], the EC50 was below 1000 nM.

Broadly, the EC50 is the concentration needed to bring the measured effect to its halfway point.
